{"source": "patent US12419873B2", "about": "“Use of JAK inhibitors in preparation of drugs for treating JAK kinase-related diseases” (ZHUHAI UNITED LABORATORIES CO., LTD., priority 2020, dated 2025)", "key": {"TYK2": {"molecular_target": "TYK2 (Homo sapiens (Human), UniProt P29597)", "sequence (P29597 whole entry)": "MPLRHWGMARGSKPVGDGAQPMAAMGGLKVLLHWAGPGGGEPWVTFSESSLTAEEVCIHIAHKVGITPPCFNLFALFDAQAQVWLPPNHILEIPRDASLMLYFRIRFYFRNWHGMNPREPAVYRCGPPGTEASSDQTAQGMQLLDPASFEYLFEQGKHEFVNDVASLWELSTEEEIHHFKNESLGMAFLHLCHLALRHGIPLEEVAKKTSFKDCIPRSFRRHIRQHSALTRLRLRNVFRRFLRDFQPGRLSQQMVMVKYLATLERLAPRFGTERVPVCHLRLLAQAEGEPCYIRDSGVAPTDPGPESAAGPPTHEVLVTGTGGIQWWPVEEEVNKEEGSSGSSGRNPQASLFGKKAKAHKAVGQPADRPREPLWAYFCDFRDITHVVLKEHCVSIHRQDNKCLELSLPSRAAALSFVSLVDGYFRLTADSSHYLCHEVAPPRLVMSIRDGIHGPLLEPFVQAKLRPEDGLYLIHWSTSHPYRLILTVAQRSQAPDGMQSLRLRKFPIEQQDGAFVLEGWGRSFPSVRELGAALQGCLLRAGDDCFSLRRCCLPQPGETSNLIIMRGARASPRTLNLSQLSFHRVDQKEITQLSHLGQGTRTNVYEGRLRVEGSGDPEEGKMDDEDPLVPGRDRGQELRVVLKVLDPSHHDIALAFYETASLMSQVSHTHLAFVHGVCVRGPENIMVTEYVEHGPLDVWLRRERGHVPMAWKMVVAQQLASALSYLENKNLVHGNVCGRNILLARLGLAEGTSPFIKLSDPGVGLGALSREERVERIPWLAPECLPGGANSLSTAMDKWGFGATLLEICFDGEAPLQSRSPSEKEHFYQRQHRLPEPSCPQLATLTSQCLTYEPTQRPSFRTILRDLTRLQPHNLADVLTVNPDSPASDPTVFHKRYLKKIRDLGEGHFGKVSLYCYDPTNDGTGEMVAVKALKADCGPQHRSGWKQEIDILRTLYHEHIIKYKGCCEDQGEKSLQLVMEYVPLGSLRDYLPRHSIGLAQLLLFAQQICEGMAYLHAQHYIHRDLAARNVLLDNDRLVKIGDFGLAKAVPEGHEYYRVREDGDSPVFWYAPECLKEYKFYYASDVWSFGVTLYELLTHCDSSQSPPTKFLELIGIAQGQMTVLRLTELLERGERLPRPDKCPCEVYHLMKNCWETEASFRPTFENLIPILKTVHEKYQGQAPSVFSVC", "assay": "In vitro activity test of TYK2 kinase", "assay_type": "biochemical", "description": "(§1) Recombinant human JAK1, JAK2, JAK3, TyK2 protease, main instruments and reagents were provided by Eurofins in the UK\n(§2) All compounds were prepared into a 100% DMSO solution and reached 50 times the final determined concentration. The test compound was diluted by 3 times the concentration gradient, and the final concentration was 10 μM to 0.001 μM, 9 concentrations in total, and the content of DMSO in the detection reaction was 2%. The working stock solution of the compound was added to a determination hole as the first component of the reaction, and then the remaining components were added according to the detailed scheme determination below.\n(§3) Mg/ATP mixture was added to start the reaction. After incubation at room temperature for 40 minutes, 0.5% phosphoric acid was added to stop the reaction."}, "JAK1": {"molecular_target": "JAK1 (Homo sapiens (Human), UniProt P23458)", "sequence (P23458 whole entry)": "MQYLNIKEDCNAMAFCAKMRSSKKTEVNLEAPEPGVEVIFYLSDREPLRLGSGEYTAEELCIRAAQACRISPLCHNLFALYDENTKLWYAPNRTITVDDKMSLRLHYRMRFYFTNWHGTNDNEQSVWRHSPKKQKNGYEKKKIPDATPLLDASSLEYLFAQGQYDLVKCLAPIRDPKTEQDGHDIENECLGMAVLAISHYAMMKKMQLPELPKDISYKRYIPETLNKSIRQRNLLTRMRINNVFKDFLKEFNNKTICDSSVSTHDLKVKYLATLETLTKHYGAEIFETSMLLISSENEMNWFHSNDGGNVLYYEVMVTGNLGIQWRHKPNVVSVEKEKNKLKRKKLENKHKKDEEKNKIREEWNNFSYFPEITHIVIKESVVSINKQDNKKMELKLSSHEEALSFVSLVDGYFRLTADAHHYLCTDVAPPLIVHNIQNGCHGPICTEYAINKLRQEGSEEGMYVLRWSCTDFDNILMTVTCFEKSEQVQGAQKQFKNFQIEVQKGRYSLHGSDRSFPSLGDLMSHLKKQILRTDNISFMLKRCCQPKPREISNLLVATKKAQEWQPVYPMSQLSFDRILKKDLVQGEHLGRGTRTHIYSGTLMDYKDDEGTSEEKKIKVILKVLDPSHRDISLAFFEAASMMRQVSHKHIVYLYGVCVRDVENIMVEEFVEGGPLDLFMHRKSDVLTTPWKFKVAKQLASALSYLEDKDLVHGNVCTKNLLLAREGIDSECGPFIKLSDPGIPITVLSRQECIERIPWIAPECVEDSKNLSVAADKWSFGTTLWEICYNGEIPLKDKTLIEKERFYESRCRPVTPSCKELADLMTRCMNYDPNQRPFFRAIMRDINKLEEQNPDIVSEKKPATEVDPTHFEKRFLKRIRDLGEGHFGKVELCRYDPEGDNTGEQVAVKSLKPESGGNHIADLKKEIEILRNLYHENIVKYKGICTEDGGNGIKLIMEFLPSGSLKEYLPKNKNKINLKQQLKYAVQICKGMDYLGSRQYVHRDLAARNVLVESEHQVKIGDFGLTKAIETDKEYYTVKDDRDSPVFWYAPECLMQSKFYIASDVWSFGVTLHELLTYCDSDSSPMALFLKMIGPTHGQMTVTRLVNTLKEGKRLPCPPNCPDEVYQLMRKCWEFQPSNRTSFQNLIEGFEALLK", "assay": "In vitro activity test of JAK1 kinase", "assay_type": "biochemical", "description": "as §1, §2, §3"}, "JAK3": {"molecular_target": "JAK3 (Homo sapiens (Human), UniProt P52333)", "sequence (P52333 whole entry)": "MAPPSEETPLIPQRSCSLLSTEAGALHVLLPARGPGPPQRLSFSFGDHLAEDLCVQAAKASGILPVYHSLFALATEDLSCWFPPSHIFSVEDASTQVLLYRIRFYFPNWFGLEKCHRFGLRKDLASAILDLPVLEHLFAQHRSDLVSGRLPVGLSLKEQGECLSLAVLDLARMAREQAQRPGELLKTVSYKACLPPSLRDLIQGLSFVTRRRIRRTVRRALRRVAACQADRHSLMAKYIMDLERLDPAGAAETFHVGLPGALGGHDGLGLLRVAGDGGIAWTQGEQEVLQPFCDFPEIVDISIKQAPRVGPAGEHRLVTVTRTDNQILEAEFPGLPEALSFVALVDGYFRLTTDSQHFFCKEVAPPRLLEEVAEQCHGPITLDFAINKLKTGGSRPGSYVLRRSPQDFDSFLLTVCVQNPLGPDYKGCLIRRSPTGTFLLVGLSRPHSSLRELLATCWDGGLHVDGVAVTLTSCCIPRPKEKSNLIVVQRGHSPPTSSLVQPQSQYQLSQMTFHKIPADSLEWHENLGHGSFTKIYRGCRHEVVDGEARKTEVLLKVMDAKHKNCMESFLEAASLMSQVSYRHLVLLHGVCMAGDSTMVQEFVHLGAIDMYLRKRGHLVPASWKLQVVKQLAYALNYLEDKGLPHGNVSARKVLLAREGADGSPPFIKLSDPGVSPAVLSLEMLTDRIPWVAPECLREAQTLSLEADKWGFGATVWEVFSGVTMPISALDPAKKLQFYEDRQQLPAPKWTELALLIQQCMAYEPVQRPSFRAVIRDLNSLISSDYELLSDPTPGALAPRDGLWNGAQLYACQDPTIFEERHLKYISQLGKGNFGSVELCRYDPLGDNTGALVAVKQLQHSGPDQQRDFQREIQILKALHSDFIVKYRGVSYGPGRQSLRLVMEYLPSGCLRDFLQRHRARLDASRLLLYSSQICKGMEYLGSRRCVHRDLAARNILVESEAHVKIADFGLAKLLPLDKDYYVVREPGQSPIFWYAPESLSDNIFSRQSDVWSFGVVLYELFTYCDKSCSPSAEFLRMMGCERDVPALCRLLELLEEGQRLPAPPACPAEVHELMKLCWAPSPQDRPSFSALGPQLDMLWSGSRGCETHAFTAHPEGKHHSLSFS", "assay": "In vitro activity test of JAK3 kinase", "assay_type": "biochemical", "description": "as §1, §2, §3"}, "[1]": {"system": "DSS induced ulcerative colitis and Crohn's disease in mice", "assay": "In vivo pharmacodynamic study on DSS induced inflammatory bowel disease (IBD) in mice", "parameters": "species or system mice (C57BL/6); Colon length: unit not given here", "text": "Inflammatory bowl disease (IBD) is a kind of recurrent disease. It is difficult to cure, has a high recurrence rate, and has a poor prognosis, it has a certain correlation with the incidence of colon cancer. The development of drugs for the treatment of IBD will help alleviate the symptoms of ulcerative colitis and Crohn's disease and improve the quality of life of patients. The mouse inflammation model induced by dextran sulfate sodium (DSS) is similar to the human disease ulcerative colitis and Crohn's disease. It is a common classical model for preclinical evaluation of drug efficacy.\nPreparation method of DSS: 20 g DSS was weighed, 1000 mL drinking water was added to form 2% DSS solution, and stored in a 4° C. refrigerator. It is effective within one month.\nPreparation method of a solvent: Vehicle solution is an aqueous solution containing 0.5% methylcellulose and 0.5% Tween 80. Firstly, 5 g of methylcellulose was dissolved in 990 mL of pure water, then 5 g of Tween 80 was added in small amount for many times, mixed evenly and stored at room temperature.\nPreparation method of compounds: the compound was weighed, an aqueous solution with a mass ratio of 0.5% methylcellulose+0.5% Tween 80 was added, and it was processed by ultrasonic until it was dissolved.\nThe adaptation period of the animals was 3 days. After adaptation, the animals were weighed every day. The blank group was given drinking water, and the other groups were given drinking water containing 2% DSS. The water volume was 5 mL/animal/day. The animals in the test drug group were administrated by gavage once a day. The blank group and […] group were given the same volume of vehicle, with the administration volume of 10 mL/kg. Every other day, the fecal viscosity was evaluated, feces were collected for fecal occult blood detection, and the disease activity index (DAI) score was calculated. DSS consumption was detected every day. Fresh DSS solution was replaced every two days. The dosing cycle was continuous intragastric administration for 7 days, followed by 4 days of drug withdrawal, followed by 7 days of continuous intragastric administration. Normal drinking water was changed when intragastric administration was stopped.\nDAI is the sum of the scores of body weight, fecal viscosity and fecal occult blood. Among them, the semi quantitative detection method of piramine cave was adopted for detecting fecal occult blood, including adding piramine cave to the sample first, then adding hydrogen peroxide and ethanol solution, and reading and scoring the color within 2 min. Immediately generating purple blue is marked as 4+, generating the purple blue within 10 s is marked as 3+, generating purple red within 1 min is marked as 2+, and gradually generating the purple red within 1-2 min is marked as 1+, and generating no color reaction of purple orchid or purple red within the reading time is recorded as negative (−). After the experiment, the colon and spleen were taken, and the length of colon and the weight of spleen were measured. The spleen index was the ratio of spleen weight to body weight."}, "JAK2": {"molecular_target": "JAK2 (Homo sapiens (Human), UniProt O60674)", "sequence (O60674 whole entry)": "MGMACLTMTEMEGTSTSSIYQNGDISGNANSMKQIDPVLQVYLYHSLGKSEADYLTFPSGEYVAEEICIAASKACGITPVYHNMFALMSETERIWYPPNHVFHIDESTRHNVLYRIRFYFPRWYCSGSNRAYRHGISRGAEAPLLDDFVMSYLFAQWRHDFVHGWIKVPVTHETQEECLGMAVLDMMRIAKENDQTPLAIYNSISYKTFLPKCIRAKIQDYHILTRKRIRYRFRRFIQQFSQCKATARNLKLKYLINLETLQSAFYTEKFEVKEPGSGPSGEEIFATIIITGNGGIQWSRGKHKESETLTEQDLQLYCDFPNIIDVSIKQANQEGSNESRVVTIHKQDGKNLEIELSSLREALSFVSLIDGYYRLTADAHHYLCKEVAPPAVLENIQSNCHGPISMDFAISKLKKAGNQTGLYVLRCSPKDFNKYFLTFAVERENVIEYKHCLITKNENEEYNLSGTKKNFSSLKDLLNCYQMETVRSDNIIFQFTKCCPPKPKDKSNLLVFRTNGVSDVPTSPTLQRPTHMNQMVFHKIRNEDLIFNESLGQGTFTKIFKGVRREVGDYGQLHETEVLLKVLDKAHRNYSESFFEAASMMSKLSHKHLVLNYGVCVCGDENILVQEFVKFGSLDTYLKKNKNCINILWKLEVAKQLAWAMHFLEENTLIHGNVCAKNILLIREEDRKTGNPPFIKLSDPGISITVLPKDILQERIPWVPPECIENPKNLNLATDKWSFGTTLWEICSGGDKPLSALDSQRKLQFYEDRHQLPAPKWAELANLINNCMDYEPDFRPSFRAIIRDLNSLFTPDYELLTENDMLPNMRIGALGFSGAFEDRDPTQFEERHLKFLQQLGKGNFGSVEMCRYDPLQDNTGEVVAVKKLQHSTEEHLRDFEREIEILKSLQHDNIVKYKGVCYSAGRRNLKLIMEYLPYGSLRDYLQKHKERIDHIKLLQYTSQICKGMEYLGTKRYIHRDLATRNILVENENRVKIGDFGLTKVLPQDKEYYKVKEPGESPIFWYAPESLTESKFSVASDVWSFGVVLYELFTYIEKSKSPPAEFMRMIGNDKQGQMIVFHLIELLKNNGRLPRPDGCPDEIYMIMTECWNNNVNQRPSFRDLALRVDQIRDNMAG", "assay": "In vitro activity test of JAK2 kinase", "details": "read-out: JAK2 (IC50)"}, "[2]": {"system": "DNCB induced allergic dermatitis in mice", "assay": "In vivo pharmacodynamic study on DNCB induced allergic dermatitis (AD) in mice", "quoted_text": "The animal allergic dermatitis model induced by 1-chloro-2,4-dinitrobenzene (DNCB) is basically consistent with the clinical manifestations of AD patients.\nPreparation method of solvent: vehicle solution is 30% PEG-400+70% (5% HP-β-CD), pH 4-5. Firstly, 35 g HP-β-CD was dissolved in 700 mL MilliQ pure water, 300 mL PEG-400 was added and mixed well, the pH was adjusted to 4-5, and stored at room temperature.\nPreparation method of compounds: the compounds were weighed and added to 30% PEG-400+ 70% (5% HP-β-CD) solution (by volume), and ultrasonically processed. After the solution was fully mixed, it is load into glass bottles and stored in a 4° C. refrigerator.\nSeventy male Balb/c mice were weighed and randomly divided into 7 groups with 10 mice in each group.\nThe animal adaptation period was 3 days. It was adapted to shaving on the back. After 2 days, it was sensitized with the modeling solution, coated with 20 μL 0.5% DNCB solution on the right ear of the mouse, applied with 200 μL 0.5% DNCB solution on the back, once a day for 3 days. The mice were stimulated from day 4, and applied with 10 μL 1% DNCB solution on the right ear of mice, 100 μL 1% DNCB solution on the back of mice, respectively, once every 3 days.\nOn days 3, 9, 15, 21, and 27, the severity of specific dermatitis was evaluated by evaluating four clinical inflammatory indicators of atopic dermatitis: Erythema/bleeding, scar/dryness, edema, and infiltration/erosion. Each evaluation index has four grades: 0, none; 1. slight; 2. moderate; 3. obvious; 4. very obvious. Sum the scores represents score of the skin. […] The spleen was taken and the spleen index was calculated: spleen index=spleen weight (mg)/body weight (g).\nThe experimental data were expressed by means±standard error (Mean±SEM), and all data were statistically analyzed by one-way ANOVA, with P<0.05 as the statistical difference."}, "[3]": {"details": "day 2, 15 mg/kg p.o. qd, Mean±SEM"}, "[4]": {"details": "day 4, 15 mg/kg p.o. qd, Mean±SEM"}, "[5]": {"details": "day 6, 15 mg/kg p.o. qd, Mean±SEM"}, "[6]": {"details": "day 8, 15 mg/kg p.o. qd, Mean±SEM"}, "[7]": {"details": "day 12, 15 mg/kg p.o. qd, Mean±SEM"}, "[8]": {"details": "day 14, 15 mg/kg p.o. qd, Mean±SEM"}, "[9]": {"details": "day 16, 15 mg/kg p.o. qd, Mean±SEM"}, "[10]": {"details": "day 18, 15 mg/kg p.o. qd, Mean±SEM"}, "[11]": {"details": "after the experiment, 30 mg/kg p.o. qd, 28 days, Mean±SEM"}}, "note": "“Also recorded” adds a separate entry of the source."}
{"molecule": "O=C(Nc1nc2cccc(C3CCC4(CC3)CN(C(=O)[C@H]3CC3(F)F)C4)n2n1)[C@@H]1CC1(F)F", "note": "[Compound 9-3]", "values": [{"measurement": "IC50", "setting": "TYK2", "value": 105, "unit": "nM"}, {"measurement": "IC50", "setting": "JAK1", "value": 7, "unit": "nM"}, {"measurement": "IC50", "setting": "JAK3", "value": "> 10000", "unit": "nM"}, {"measurement": "Colon shortening caused by DSS, compared with DSS group (in words)", "setting": "[1]; 15 mg/kg p.o.", "value": "can reduce colon shortening"}, {"measurement": "Increase of spleen index induced by DSS (in words)", "setting": "[1]; 15 mg/kg p.o.", "value": "could reduce the increase of spleen index"}, {"measurement": "Colon length", "setting": "[1]; after the experiment, 15 mg/kg p.o. qd, Mean±SEM", "value": "2.87 ± 0.11"}, {"measurement": "Weight of mice", "setting": "[1]; day 1, 15 mg/kg p.o. qd, Mean±SEM", "value": "22.26 ± 0.29"}, {"measurement": "DAI score", "setting": "[1]; [3]", "value": "0.40 ± 0.16"}, {"measurement": "Weight of mice", "setting": "[1]; [3]", "value": "22.48 ± 0.29"}, {"measurement": "Weight of mice", "setting": "[1]; day 3, 15 mg/kg p.o. qd, Mean±SEM", "value": "22.39 ± 0.27"}, {"measurement": "DAI score", "setting": "[1]; [4]", "value": "1.70 ± 0.54"}, {"measurement": "Weight of mice", "setting": "[1]; [4]", "value": "22.26 ± 0.31"}, {"measurement": "Weight of mice", "setting": "[1]; day 5, 15 mg/kg p.o. qd, Mean±SEM", "value": "22.18 ± 0.40"}, {"measurement": "DAI score", "setting": "[1]; [5]", "value": "2.40 ± 0.37"}, {"measurement": "Weight of mice", "setting": "[1]; [5]", "value": "22.00 ± 0.43"}, {"measurement": "Weight of mice", "setting": "[1]; day 7, 15 mg/kg p.o. qd, Mean±SEM", "value": "21.21 ± 0.53"}, {"measurement": "DAI score", "setting": "[1]; [6]", "value": "4.70 ± 0.94"}, {"measurement": "Weight of mice", "setting": "[1]; [6]", "value": "20.72 ± 0.67"}, {"measurement": "Weight of mice", "setting": "[1]; day 9, 15 mg/kg p.o. qd, Mean±SEM", "value": "19.89 ± 0.37"}, {"measurement": "Weight of mice", "setting": "[1]; day 10, 15 mg/kg p.o. qd, Mean±SEM", "value": "18.92 ± 0.47"}, {"measurement": "Weight of mice", "setting": "[1]; day 11, 15 mg/kg p.o. qd, Mean±SEM", "value": "18.60 ± 0.62"}, {"measurement": "DAI score", "setting": "[1]; [7]", "value": "4.11 ± 0.53"}, {"measurement": "Weight of mice", "setting": "[1]; [7]", "value": "18.50 ± 0.74"}, {"measurement": "Weight of mice", "setting": "[1]; day 13, 15 mg/kg p.o. qd, Mean±SEM", "value": "19.42 ± 0.78"}, {"measurement": "DAI score", "setting": "[1]; [8]", "value": "4.88 ± 0.44"}, {"measurement": "Weight of mice", "setting": "[1]; [8]", "value": "19.26 ± 0.93"}, {"measurement": "Weight of mice", "setting": "[1]; day 15, 15 mg/kg p.o. qd, Mean±SEM", "value": "19.96 ± 0.84"}, {"measurement": "DAI score", "setting": "[1]; [9]", "value": "3.67 ± 0.86"}, {"measurement": "Weight of mice", "setting": "[1]; [9]", "value": "20.84 ± 0.46"}, {"measurement": "Weight of mice", "setting": "[1]; day 17, 15 mg/kg p.o. qd, Mean±SEM", "value": "20.42 ± 0.50"}, {"measurement": "DAI score", "setting": "[1]; [10]", "value": "4.83 ± 0.68"}, {"measurement": "Weight of mice", "setting": "[1]; [10]", "value": "19.78 ± 0.43"}, {"measurement": "Spleen index", "setting": "[1]; ratio of spleen weight to body weight, 15 mg/kg p.o. qd, Mean±SEM", "value": "4.98 ± 0.40"}, {"measurement": "IC50", "setting": "JAK2", "value": 292, "unit": "nM"}, {"measurement": "Effect on the weight of mice (in words)", "setting": "[2]; 30 mg/kg p.o. qd, 28 days", "value": "no significant effect"}, {"measurement": "Effect on treating allergic dermatitis (in words)", "setting": "[2]; 30 mg/kg p.o. qd, DNCB mice", "value": "good disease treatment effect; also recorded: significant effect"}, {"measurement": "Concentration of IgE in serum after drug intervention (in words)", "setting": "[2]; 30 mg/kg p.o., vs DNCB group", "value": "significantly decreased"}, {"measurement": "Spleen index after drug intervention (in words)", "setting": "[2]; 30 mg/kg p.o., vs DNCB group", "value": "significantly decreased"}, {"measurement": "Thickness of the right ear after drug intervention (in words)", "setting": "[2]; 30 mg/kg p.o., vs DNCB group", "value": "significantly decreased"}, {"measurement": "IgE concentration in serum", "setting": "[2]; [11]", "value": "6.39 ± 1.04"}, {"measurement": "Thickness of the right ear", "setting": "[2]; [11]", "value": "0.252 ± 0.006"}, {"measurement": "Weight of mice", "setting": "[2]; day 1, 30 mg/kg p.o. qd from day 4, Mean±SEM", "value": "19.32 ± 0.46"}, {"measurement": "Skin score", "setting": "[2]; day 3, 30 mg/kg p.o. qd from day 4, Mean±SEM", "value": "0.7 ± 0.5"}, {"measurement": "Weight of mice", "setting": "[2]; day 4, 30 mg/kg p.o. qd, Mean±SEM", "value": "20.02 ± 0.41"}, {"measurement": "Weight of mice", "setting": "[2]; day 7, 30 mg/kg p.o. qd, Mean±SEM", "value": "19.24 ± 0.47"}, {"measurement": "Skin score", "setting": "[2]; day 9, 30 mg/kg p.o. qd, Mean±SEM", "value": "3.4 ± 0.7"}, {"measurement": "Weight of mice", "setting": "[2]; day 10, 30 mg/kg p.o. qd, Mean±SEM", "value": "19.41 ± 0.58"}, {"measurement": "Weight of mice", "setting": "[2]; day 13, 30 mg/kg p.o. qd, Mean±SEM", "value": "20.83 ± 0.42"}, {"measurement": "Skin score", "setting": "[2]; day 15, 30 mg/kg p.o. qd, Mean±SEM", "value": "4.2 ± 0.6"}, {"measurement": "Weight of mice", "setting": "[2]; day 16, 30 mg/kg p.o. qd, Mean±SEM", "value": "21.49 ± 0.45"}, {"measurement": "Weight of mice", "setting": "[2]; day 19, 30 mg/kg p.o. qd, Mean±SEM", "value": "23.36 ± 0.38"}, {"measurement": "Skin score", "setting": "[2]; day 21, 30 mg/kg p.o. qd, Mean±SEM", "value": "5.4 ± 0.9"}, {"measurement": "Weight of mice", "setting": "[2]; day 22, 30 mg/kg p.o. qd, Mean±SEM", "value": "23.67 ± 0.37"}, {"measurement": "Weight of mice", "setting": "[2]; day 25, 30 mg/kg p.o. qd, Mean±SEM", "value": "23.14 ± 0.42"}, {"measurement": "Skin score", "setting": "[2]; day 27, 30 mg/kg p.o. qd, Mean±SEM", "value": "2.2 ± 0.9"}, {"measurement": "Skin score compared with DNCB group (in words)", "setting": "[2]; day 27 of administration, 30 mg/kg p.o.", "value": "significant reduction"}, {"measurement": "Weight of mice", "setting": "[2]; day 28, 30 mg/kg p.o. qd, Mean±SEM", "value": "24.15 ± 0.50"}, {"measurement": "Spleen index", "setting": "[2]; spleen weight (mg)/body weight (g), 30 mg/kg p.o. qd, 28 days, Mean±SEM", "value": "4.17 ± 0.65"}]}
